Measurements from patent publication US5798365A, “Substituted quinoline derivatives, a process for their preparation, and their use” (Hoechst Aktiengesellschaft, priority 1994, dated 1998).
Values after ≈ are worked out from the molar mass of the structure shown. Like-named read-outs stand apart in the source and are kept apart here.

Columns and labels:
[1] = target: T1, HIV reverse transcriptase (Human immunodeficiency virus type 1 group M subtype B, UniProt P04585); test: Inhibition of HIV reverse transcriptase, scintillation proximity assay (SPA); format: biochemical; details: RT-SPA, 60 min, 37° C., read-out: Reverse Transcriptase Asaay IC-50 (converted)
T1 construct: purchased HT-Biotechnology LTD, Cambridge, UK; host or cells: E. coli
Procedure: Investigation of the ability of the substances to inhibit the HIV reverse transcriptase
The activity of the reverse transcriptase (RT) was measured by means of a scintillation proximity assay (SPA).
The reagent kit for the RT-SPA was obtained from Amersham/Buchler (Braunschweig). The RT enzyme (originating from HIV and cloned in E. coli) was provided by HT-Biotechnology LTD, Cambridge, UK.
The test was carried out in accordance with the supplier's (Amersham) methods manual--with the following modifications:
bovine serum albumin was added to the assay buffer to a final concentration of 0.5 mg/ml.
The test was carried out in Eppendorf reaction tubes using a mixture volume of […].
The supplier's RT concentrate (5000 U/ml) was diluted in 20 mM tris-HCl buffer; pH 7.2; 30% glycerol to an activity of 15 U/ml.
The assay mixtures were incubated for 60 min (at 37° C.).
After the reaction had been stopped and "developed" using the bead suspension, […] of assay mixture was transferred into 4.5 ml of 10 mM tris-HCl buffer; pH 7.4; 0.15M NaCl
and the tritium activity was measured in a β counter.
In order to carry out a preliminary test for inhibitor activity, the substances were dissolved in DMSO (stock solution concentration=1 mg/ml) and tested at 10^-1, 10^-2, 10^-3, etc. dilutions in DMSO.
In order to determine the IC50 values, the stock solutions of inhibitor were further diluted in 50 mM tris-HCl buffer, pH 8, and tested at suitable concentrations.
The concentration giving rise to 50% inhibition of the enzyme was ascertained from the graphic depiction of RT activity versus log Cinh.

HIV = test: Testing preparations against HIV in cell culture (infected human donor lymphocytes); format: cell-based; details: for MIC: Human immunodeficiency virus 1, 72 h, lowest concentration without giant cells; for IC50: Human immunodeficiency virus 1, Lymphocyte, 72 h
Procedure: Testing preparations against HIV in cell culture
Description of the method
The complete medium additionally contains 20% foetal calf serum and 40 IU/ml recombinant interleukin 2.
Lymphocytes which have been isolated from fresh donor blood by means of Ficoll® gradient centrifugation are cultured, at 37° C. for 36 h and under 5% CO2, in complete medium in the added presence of […] phytohemagglutinin (Wellcome). After the addition of 10% DMSO, the cells are frozen at a cell density of 5×10^6 and stored in liquid nitrogen. For the experiment, the cells are thawed, washed in RPMI medium and cultured for 3-4 days in complete medium.
The preparations for testing were dissolved in DMSO at a concentration of 16.7 mg/ml and diluted to 1 mg/ml in complete medium. 0.4 ml of medium was initially introduced in 24-well multiwell plates. After 0.1 ml of the dissolved preparation had been added to the upper row of the plate, a geometrical dilution series was produced by transferring 0.1 ml on each occasion. Preparation-free controls always contained 0.4 ml of complete medium containing 0.5% DMSO.
Lymphocyte cultures having a cell count of 5×10^5 cells/ml were infected by adding a 1/50 volume of the supernatant from lymphocyte cultures infected with HIV. The titer of these culture supernatants was determined, by end point dilution, to be 1-5×10^6 infectious units/ml. After incubating at 37° C. for 30 min, the infected lymphocytes were centrifuged off and taken up once again in the same volume of medium. 0.6 ml of this cell suspension was added to each of the wells in the test plate. The assay mixtures were incubated at 37° C. for 3 days.
The infected cell cultures were examined under the microscope for the presence of giant cells, which indicate that the virus is multiplying actively in the culture. The lowest preparation concentration at which no giant cells appeared was defined as the inhibitory concentration against HIV (MIC value). As a control, the presence of HIV antigen in the supernatants from the culture plates was determined using a test for HIV antigen in accordance with the manufacturer's (Organon) instructions.

[2] = HIV-infected lymphocytes, 3 days, 37° C.
[3] = HIV-infected lymphocytes, 3 days, 37° C., read-out: IC-50

SMILES | IC50 ([1]; molar value in parentheses) | IC50 [1] | MIC (HIV; [2]) | IC50 (HIV; [3]) | IC50 (HIV) | IC50 ([1]; unit as printed for compound 59) | IC50 ([1]; first value of compound 18, unit as printed) | IC50 (HIV; HIV-infected lymphocytes, 3 days, unit as printed for compound 66, read-out: IC-50) | IC50 (HIV; HIV-infected lymphocytes, 3 days, unit as printed for compound 10, read-out: IC-50)
CCCCCC=C1c2cc(OC)ccc2NC(=S)C1(C)C [Compound 64] | 109 nM | 109 nM |  |  |  |  |  |  | 
CCC=C1c2cc(OC)ccc2NC(=S)C1(C)C [Compound 45] | 9 nM | 9.18 nM | 0.004 µg/mL (≈ 0.0153 µM) | 2 ng/mL (≈ 0.00765 µM) |  |  |  |  | 
CC(C)C=C1c2ccccc2NC(=S)C1(C)C [Compound 24] | 270 nM | 270 nM |  |  |  |  |  |  | 
CCCC=C1c2ccccc2NC(=O)C1(CC)CC [Compound 48] | 54 nM | 54.4 nM | < 0.08 µg/mL | ~10 ng/mL (≈ 0.0389 µM) |  |  |  |  | 
CC(C)CC=C1c2cc(Cl)ccc2NC(=O)C1(C)C [Compound 19] | 37 nM | 37.1 nM |  | 8 ng/mL (≈ 0.0288 µM) |  |  |  |  | 
CC(C)CC=C1c2cc(Cl)ccc2NC(=S)C1(C)C [Compound 20] | 22 nM | 21.4 nM | < 0.008 µg/mL | 1.5 ng/mL (≈ 0.0051 µM) |  |  |  |  | 
COc1ccc2c(c1)C(=CCC(C)C)C(C)(C)C(=S)N2 [Compound 69] | 18 nM | 17.3 nM | < 0.02 µg/mL |  | ~1.8 ng/mL (≈ 0.00622 µM) |  |  |  | 
CCOC(=O)/C=C1\c2cc(Cl)ccc2NC(=S)C1(C)C [Compound 142] |  | 123 nM | < 0.2 µg/mL | 4 ng/mL (≈ 0.0129 µM) |  |  |  |  | 
CC/C=C1\c2cc(Cl)ccc2NC(=S)C1(C)C [Compound 71] | 5 nM | 3.76 nM | 0.0016 µg/mL (≈ 0.00602 µM) |  |  |  |  |  | 
CCC/C=C1\c2cc(Cl)ccc2NC(=O)C1(C)C [Compound 73, E-4-n-butylene-6-chloro-3,4-dihydro-3,3-dimethylquinolin-2(1H)-one] | 30 nM | 30.3 nM | < 0.04 µg/mL | 20 ng/mL (≈ 0.0758 µM) |  |  |  |  | 
CCC=C1c2cc(Cl)ccc2NC(=O)C1(C)C [Compound 3] |  | 108 nM | < 0.08 µg/mL | 30 ng/mL (≈ 0.12 µM) |  |  |  |  | 
CCCC=C1c2ccccc2NC(=S)C12CCC2 [Compound 7] | 18 nM | 19.4 nM | < 0.008 µg/mL | ~0.32 ng/mL (≈ 0.00124 µM) |  |  |  |  | 
CCCC=C1c2cc(OCC)ccc2NC(=S)C1(C)C [Compound 55] | 31 nM | 31.1 nM | < 0.08 µg/mL | ~6 ng/mL (≈ 0.0207 µM) |  |  |  |  | 
CCC/C=C1\c2cc(Cl)ccc2NC(=S)C1(C)C [Compound 75, E-4-n-butylene-6-chloro-3,4-dihydro-3,3-dimethylquinolin-2(1H)-thione] |  | < 3.57 nM | 0.004 µg/mL (≈ 0.0143 µM) | ~1.8 ng/mL (≈ 0.00643 µM) |  |  |  |  | 
CCCC=C1c2ccccc2NC(=S)C12CCCC2 [Compound 8, E/Z-4-n-butylene-3,3-cyclopentylidene-3,4-dihydroquinolin-2(1H)-thione] | 16 nM | 14.7 nM | 0.008 µg/mL (≈ 0.0295 µM) |  | 1.6 ng/mL (≈ 0.00589 µM) |  |  |  | 
CCC=C1c2cc(Cl)ccc2NC(=S)C1(C)C [Compound 4] | 8 nM | 7.52 nM | 0.0016 µg/mL (≈ 0.00602 µM) | < 0.32 ng/mL |  |  |  |  | 

SMILES | IC50 ([1]; molar value in parentheses) | IC50 [1] | MIC (HIV; [2]) | IC50 (HIV; [3]) | IC50 (HIV) | IC50 ([1]; unit as printed for compound 59) | IC50 ([1]; first value of compound 18, unit as printed) | IC50 (HIV; HIV-infected lymphocytes, 3 days, unit as printed for compound 66, read-out: IC-50) | IC50 (HIV; HIV-infected lymphocytes, 3 days, unit as printed for compound 10, read-out: IC-50)
CC(C)CC=C1c2ccccc2NC(=S)C12CCCC2 [Compound 70] | 21 nM | 21 nM | 0.02 µg/mL (≈ 0.0701 µM) | ~3 ng/mL (≈ 0.0105 µM) |  |  |  |  | 
CCOc1ccc2c(c1)C(=CCC(C)C)C(C)(C)C(=S)N2 [Compound 59] | 46 nM |  | < 0.02 µg/mL | ~8 ng/mL (≈ 0.0264 µM) |  | 46.1 nM |  |  | 
COc1ccc2c(c1)C(=C1CCCC1)C(C)(C)C(=O)N2 [Compound 138] |  | 225 nM | > 0.2 µg/mL | 30 ng/mL (≈ 0.111 µM) |  |  |  |  | 
CCCC=C1c2ccccc2NC(=S)C1(CC)CC [Compound 49] | 24 nM | 25.6 nM | < 0.02 µg/mL | ~2 ng/mL (≈ 0.00731 µM) |  |  |  |  | 
COc1ccc2c(c1)C(=CC(C)C)C(C)(C)C(=S)N2 [Compound 61] | 62 nM | 61.7 nM | 0.02 µg/mL (≈ 0.0726 µM) | ~4 ng/mL (≈ 0.0145 µM) |  |  |  |  | 
C=CC=C1c2cc(Cl)ccc2NC(=S)C1(C)C [Compound 14] | 18 nM | 15.2 nM | < 0.008 µg/mL | 5 ng/mL (≈ 0.019 µM) |  |  |  |  | 
CC(C)C=C1c2cc(Cl)ccc2NC(=S)C1(C)C [Compound 18] | 55 nM |  | < 0.008 µg/mL | 2 ng/mL (≈ 0.00715 µM) |  |  | 54.3 nM |  | 
C=CC=C1c2cc(OC)ccc2NC(=S)C1(C)C [Compound 68] |  | ~38.6 nM |  |  |  |  |  |  | 
CCCC=C1c2ccccc2NC(=S)C1(C)C [Compound 28] | 24 nM | 23.6 nM | 0.008 µg/mL (≈ 0.0326 µM) | ~10 ng/mL (≈ 0.0408 µM) |  |  |  |  | 
CCC=C1c2ccccc2NC(=S)C1(CC)CC [Compound 51] | 23 nM | 23.1 nM | 0.02 µg/mL (≈ 0.0771 µM) | ~2 ng/mL (≈ 0.00771 µM) |  |  |  |  | 
CCCC=C1c2cc(Cl)ccc2NC(=O)C1(C)C [Compound 2, 4-n-Butylene-6-chloro-3,4-dihydro-3,3-dimethylquinolin-2(1H)-one] | 63 nM | 64.5 nM | 0.1 µg/mL (≈ 0.379 µM) | ~15 ng/mL (≈ 0.0569 µM) |  |  |  |  | 
CCC1(CC)C(=S)Nc2ccccc2C1=CCC(C)C [Compound 53] | 44 nM | 45.2 nM | 0.02 µg/mL (≈ 0.0696 µM) | ~2 ng/mL (≈ 0.00696 µM) |  |  |  |  | 
COc1ccc2c(c1)C(=CCC(C)C)C(C)(C)C(=O)N2 [Compound 66] | 70 nM | 69.5 nM | < 0.1 µg/mL |  |  |  |  | ~10 ng/mL (≈ 0.0366 µM) | 
CCCC=C1c2cc(OC)ccc2NC(=S)C1(C)C [Compound 42, E/Z-4-n-butylene-3,4-dihydro-3,3-dimethyl-6-methoxyquinolin-2(1H)-thione] | 9 nM | 9.44 nM | < 0.008 µg/mL | 2 ng/mL (≈ 0.00726 µM) |  |  |  |  | 
CC(C)=C1c2cc(Cl)ccc2NC(=S)C1(C)C [Compound 10] | 116 nM | 117 nM |  |  |  |  |  |  | 25 ng/mL (≈ 0.0941 µM)
CCCC=C1c2ccccc2NC(=O)C12CCCC2 [Compound 6, E/Z-4-n-butylene-3,3-cyclopentylidene-3,4-dihydroquinolin-2(1H)-one] | 113 nM | 113 nM |  |  |  |  |  |  | 
